Data on 97 molecules can be found in the CATMoS acute toxicity set (Mansouri et al. 2021).

The data set is described as follows: GHS categories as the set defines them, by LD50: 1 up to 5, 2 up to 50, 3 up to 300, 4 up to 2000, 5 above 2000 mg/kg. The settings on record: rat; in vivo; po.
With `C=CC(=O)O[Si](C(C)C)(C(C)C)C(C)C`, the GHS category came out at 5.

As to `C/C=C\[C@@H]1[C@@H](C(=O)OCc2c(F)c(F)c(COC)c(F)c2F)C1(C)C`, the GHS category amounted to 5.

Molecule `CC(CC(C)(C)C)CC(C)(C)CC(C)(C)C` (configuration not stated) registered a GHS category of 5.

The molecule `CC(C)C1C=C2CCC3C(C)(CO)CCCC3(C)C2CC1` (configuration not stated) displayed a GHS category of 5.

Consider `c1ccc2oc(C3(Cn4cncn4)OCCCO3)cc2c1`, for which the GHS category is 4.

In turn, `CCC1COC(Cn2cncn2)(c2cc3cc(Cl)cc(Cl)c3o2)O1` (configuration not stated) showed a GHS category of 4.

Consider `CCCCCC=CCC=CCC=CCC=CCCCC(=O)OCC`, for which the GHS category is listed as 5.

As to `NC[C@H]1O[C@H](O[C@H]2[C@H](O)[C@@H](O[C@H]3O[C@H](CO)[C@@H](O)[C@H](N)[C@H]3O)[C@H](N)C[C@@H]2N)[C@H](N)C[C@@H]1O`, the GHS category is on record as 5.

Molecule `COc1ncc(F)c2nc(S(=O)(=O)Nc3c(F)cccc3F)nn12` gave a GHS category of 5.

In the case of `CO[C@@H]1[C@@H](O[C@@H]2O[C@H](C)[C@@H](O[C@H]3C[C@@](C)(O)[C@@H](O)[C@H](C)O3)[C@H](N(C)C)[C@H]2O)[C@@H](CC=O)C[C@@H](C)[C@@H](O[C@@H]2CC[C@H](N(C)C)[C@@H](C)O2)C=CC=CC[C@@H](C)OC(=O)C[C@H]1OC(C)=O`, the GHS category was 5.

Molecule `CC(CC=O)CCCC(C)(C)O` (configuration not stated) showed a GHS category of 5.

Regarding `CCCCCCCCCCCCCCC`, the GHS category was determined as 5.

In turn, `Cc1ccc(OC(=O)c2ccccc2OC(N)=O)cc1` had a GHS category of 5.

Molecule `CC=CCC1=C(C)CCC1` yielded a GHS category of 5.

As to `CC1=CCC(C(C)(C)OC(=O)C(C)C)CC1` (configuration not stated), the GHS category is 5.

`Cc1cc(OC(=O)c2cc(Cl)ccc2OC(N)=O)ccc1Cl` had a GHS category of 5.

`CC(C=O)C(=O)c1ccc(C2CCCCC2)cc1` (configuration not stated) gave a GHS category of 4.

The molecule `O=C(O)Cc1ccc(Cl)cc1Cl` showed a GHS category of 5.

`FC(F)(Cl)Cl` registered a GHS category of 4.

`CC(C)C(=O)OCC=Cc1ccccc1` displayed a GHS category of 5.

For `Nc1ccc([N+](=O)[O-])cc1O`, the GHS category stood at 5.

`CCOC(=O)CC(CC(C)=O)C(=O)OCC` (configuration not stated) came in with a GHS category of 5.

Molecule `Cc1ccc2oc(C3(Cn4ccnc4)OCCO3)cc2c1` gave a GHS category of 4.

Take `C=C(C)COCC/C=C\CC`: the GHS category stood at 5.

In the case of `CC(Br)(CBr)COc1c(Br)cc(C(C)(C)c2cc(Br)c(OCC(C)(Br)CBr)c(Br)c2)cc1Br` (configuration not stated), the GHS category was determined as 5.

Consider `O=C(O)CNC(c1ccccc1)c1ccc(Cl)c(Cl)c1` (configuration not stated), for which the GHS category is 4.

As to `COc1ccc(NC(=O)c2cc3ccccc3cc2O)cc1`, the GHS category was 5.

Molecule `C=CCCCCCCCCOC(C)=O` had a GHS category of 5.

The molecule `CCCC(=O)c1ccc2c(c1)OC(C)C(=O)N2C` (configuration not stated) displayed a GHS category of 5.

Regarding `CCSP(=O)(SCC)SCC`, the GHS category turned out to be 3.

Regarding `CCCCC(CC)COC(=O)c1ccc(C(=O)OCC(CC)CCCC)c(C(=O)OCC(CC)CCCC)c1` (configuration not stated), the GHS category was 5.

`CC(=O)OC[C@H]1O[C@@](COC(C)=O)(O[C@H]2O[C@H](COC(C)=O)[C@@H](OC(C)=O)[C@H](OC(C)=O)[C@H]2OC(C)=O)[C@@H](OC(C)=O)[C@@H]1OC(C)=O` displayed a GHS category of 5.

Turning to `CC12CCC3c4ccc(OC(=O)c5ccccc5)cc4CCC3C1CCC2OC(=O)CO` (configuration not stated), the GHS category is listed as 5.

Molecule `C=CC(=O)OCCCOCC(C)(C)COCCCOC(=O)C=C` returned a GHS category of 5.

The molecule `CCOC(=O)C(=O)Nc1ccncn1` yielded a GHS category of 4.

On to `Cc1ccc(C(=O)c2ccc(CC(=O)NCC(=O)Nc3cccc(Cl)c3)n2C)cc1`, for which the GHS category was found to be 4.

`CCCCC(CC)CN1CN(CC(CC)CCCC)CC(C)(N)C1` (configuration not stated): the GHS category was found to be 4.

As to `CC(C)=CCC(C#N)(CCN(C)C)Cc1cccc2ccccc12` (configuration not stated), the GHS category is recorded as 4.

For the molecule `CCCCCCCCOC(=O)C(C)C`, the GHS category came out at 5.

Molecule `CCO[Si](CCCSSCCC[Si](OCC)(OCC)OCC)(OCC)OCC` gave a GHS category of 5.

As to `CCC(C)Cl` (configuration not stated), the GHS category was 5.

On to `N[C@@H](CSSC[C@H](N)C(=O)O)C(=O)O`, for which the GHS category stood at 5.

As for `CN1COCN=C1N[N+](=O)[O-]`, the GHS category is given as 4.

With `CNC(=O)C(=NNc1ccc(C)cc1)C(C)=O`, the GHS category is 5.

`CCN(CC)CCNC(C(=O)OCCC(C)C)c1ccccc1` (configuration not stated) had a GHS category of 4.

`CCCCCCCCCCCCCOC(=O)c1ccccc1C(=O)OCCCCCCCCCCCCC` returned a GHS category of 5.

Turning to `CCCS(=O)(=O)Nc1ccc(F)c(C(=O)c2cn(C(=O)c3c(Cl)cccc3Cl)c3ncc(-c4ccc(Cl)cc4)cc23)c1F`, the GHS category was 5.

`C/C=C(\C)C(=O)O[C@H]1C[C@@H](OC(C)=O)[C@@]2(C(=O)OC)CO[C@H]3[C@@H](O)[C@@](C)([C@]45O[C@@]4(C)[C@H]4C[C@@H]5O[C@@H]5OC=C[C@@]54O)[C@H]4[C@]1(CO[C@]4(O)C(=O)OC)[C@@H]32` showed a GHS category of 5.

In the case of `CC(=O)CC(=O)O[C@H]1C[C@@H](C)CC[C@@H]1C(C)C`, the GHS category is 5.

Molecule `CC12CCC(=O)NC1=CCC1C2CCC2(C)C(C(=O)O)CCC12` (configuration not stated) showed a GHS category of 5.

In turn, `O=C(NNc1cccc(C(F)(F)F)c1)c1cccnc1Cl` showed a GHS category of 4.

Take `Clc1ccc(N/C(=N/C2CCCCC2)c2ccccc2)c(Cl)c1`: the GHS category was found to be 5.

As for `CC1CC(OC(=O)C(C)Oc2ccc(Cl)cc2)CC(C)(C)C1` (configuration not stated), the GHS category was found to be 5.

Molecule `CN1C(C(=O)Nc2ccccn2)=C(O)c2sc(O)cc2S1(=O)=O` gave a GHS category of 3.

The molecule `c1ccc(CSCc2ccccc2)cc1` showed a GHS category of 5.

Consider `CCCCCCCCCCCCSN(C)C(=O)Oc1cccc2c1OC(C)(C)C2`, for which the GHS category came to 3.

In turn, `CC1CCC(C(C)C)C(OCC(O)CO)C1` (configuration not stated) registered a GHS category of 5.

Molecule `C=CC(C)C(=O)OCC` (configuration not stated) displayed a GHS category of 5.

On to `CNc1cnn(-c2cccc(C(F)(F)F)c2)c(=O)c1Cl`, for which the GHS category is recorded as 5.

The molecule `CO/N=C(/C(=O)N[C@@H]1C(=O)N2C(C(=O)O)=C(COC(C)=O)CS[C@H]12)c1csc(N)n1` came in with a GHS category of 5.

`NCCCCCCCCCCCC(=O)O` showed a GHS category of 5.

As to `NC(N)=NCc1ccc2c(c1)OCCO2`, the GHS category is 5.

`CSc1nc(N)c2c(C)coc2n1` yielded a GHS category of 5.

In the case of `Clc1ccc2oc(C3(Cn4cncn4)OCCCO3)cc2c1`, the GHS category is reported as 4.

`CN[C@H](CC(N)=O)C(=O)NC(=O)[C@@H](N[C@@H]1C(=O)N2C1SC(C)(C)[C@@H]2C(=O)O)c1ccc(O)cc1` (some centres not stated) yielded a GHS category of 5.

Molecule `Cc1[nH]n(-c2ccccc2)c(=O)c1N=Nc1ccc(-c2ccc(N=Nc3c(C)[nH]n(-c4ccccc4)c3=O)c(Cl)c2)cc1Cl` yielded a GHS category of 5.

In turn, `CCCCCCC1CCCC1=O` (configuration not stated) gave a GHS category of 5.

For the molecule `Cn1c2cc(C(F)(F)F)ccc2c2oc(C(=O)NCCCN3CCCCC3)cc21`, the GHS category turned out to be 4.

In turn, `C=CCN1C(=O)CCc2c(OCC(O)CN3CCC(Cc4ccccc4)CC3)cccc21` (configuration not stated) displayed a GHS category of 4.

For `CCCCOC(=O)c1ccc(-n2nc(OCCCN3CCCCC3)c3ccccc32)cc1`, the GHS category worked out at 4.

On to `Clc1ccc(Cn2ccnc2-c2ccccc2)cc1`, for which the GHS category is given as 4.

`Oc1ccc(C(O)CN2CCN(C(c3ccccc3)c3ccccc3)CC2)cc1` (configuration not stated) came in with a GHS category of 5.

As to `O=c1[nH]sc2cc(Cl)ccc12`, the GHS category is 5.

With `O=C1OCc2c(Cl)cccc21`, the GHS category is 4.

`CNC(=O)c1c(I)c(NC(=O)CCCCC(=O)Nc2c(I)c(C(=O)O)c(I)c(C(=O)NC)c2I)c(I)c(C(=O)O)c1I` showed a GHS category of 5.

Turning to `CCCN(CCC)C(=O)C(CCC(=O)OCCOCCOC(=O)Cc1c(C)n(C(=O)c2ccc(Cl)cc2)c2ccc(OC)cc12)NC(=O)c1ccccc1` (configuration not stated), the GHS category was determined as 4.

As to `CN(C/C=C/C#CC(C)(C)C)Cc1cccc2ccccc12`, the GHS category stood at 5.

In turn, `CCCCCCCCCCCCCCCC(=O)OC(C)C` had a GHS category of 5.

Molecule `O=CCCc1ccccc1` displayed a GHS category of 5.

`CCCCCCOC(=O)C(C)C` gave a GHS category of 5.

On to `COC(=O)c1ccc(C(F)(F)F)nc1S(=O)(=O)NC(=O)Nc1nc(OC)cc(OC)n1`, for which the GHS category turned out to be 5.

Take `COc1ccc2c(c1)CCN(c1ccccc1)C2c1ccc(Br)cc1` (configuration not stated): the GHS category is 4.

For `C=CCCCCCCCC(=O)OC`, the GHS category is recorded as 5.

Consider `c1ccc(C2=NN(c3ccccc3)C(c3ccccc3)C2)cc1` (configuration not stated), for which the GHS category was 5.

The molecule `CCCc1nc2ccnn2c(CCC)c1Cc1ccc(-c2ccccc2-c2nn[nH]n2)cc1` displayed a GHS category of 4.

With `CNC(=O)Oc1cccc2c1OC1(CCCCC1)O2`, the GHS category is listed as 3.

Turning to `CC1Oc2cc(C(=O)C=Cc3ccc(O)cc3)ccc2N(C)C1=O` (configuration not stated), the GHS category came to 5.

Take `O=c1nc(-c2cccnc2)[nH]c2ncccc12`: the GHS category turned out to be 4.

Turning to `COC(=O)c1nccnc1N`, the GHS category came out at 5.

The molecule `CCCCC(CC)COC(=O)CCCCCCCCC(=O)OCC(CC)CCCC` (configuration not stated) showed a GHS category of 5.

`CCOC(=O)c1c[nH]c2c(F)c(F)c(F)cc2c1=O` came in with a GHS category of 5.

`CC1Cc2ccccc2N1NC(=O)c1ccc(Cl)c(S(N)(=O)=O)c1` (configuration not stated) displayed a GHS category of 5.

For the molecule `Brc1c(Br)c(Br)c(-c2c(Br)c(Br)c(Br)c(Br)c2Br)c(Br)c1Br`, the GHS category was 5.

As for `CC[C@H](C)C(=O)O[C@H]1C[C@H](O)C=C2C=C[C@H](C)[C@H](CC[C@@H](O)C[C@@H](O)CC(=O)O)[C@H]21`, the GHS category is listed as 5.

Turning to `Nc1cc(C(=O)O)ccc1Cl`, the GHS category is given as 5.

`CO/N=C(\C(=O)N[C@@H]1C(=O)N2C(C(=O)O)=CCS[C@H]12)c1csc(N)n1` came in with a GHS category of 5.

Molecule `CC(C)OC(=O)c1ccccc1OC(N)=O` showed a GHS category of 5.
